Assay results published in PubChem BioAssay AID192 (DTP/NCI, 2004).
Where “and” joins values, the source holds several entries; their conditions need not be identical. Identical values can stand only once. Inconclusive results and toxic doses are left out. Square brackets hold non-standard residues; d marks the D form. Peptide text beside a SMILES is read from it. ξ: configuration not given here. ξNle = CCCCC(N)C(=O)O

Test system: BDF1 mice, B16 melanoma ip, median survival T/C
Test: NCI In Vivo Anticancer Drug Screen. Data for tumor model B16 Melanoma (intraperitoneal) in B6D2F1 (BDF1) mice
Details: endpoint: median survival time, higher = longer survival
In short: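 Read-out: survival or tumor size, given as treated/control ratio. Controls received vehicle only; animals bore transplantable tumors.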

[1] = dose: 25.0 mg/kg/injection, schedule: Q01DX009 (ip), vehicle: Klucel (hydroxypropylcellulose) (HPC)
[2] = dose: 50.0 mg/kg/injection, schedule: Q01DX009 (ip), vehicle: Klucel (hydroxypropylcellulose) (HPC)
[3] = dose: 100.0 mg/kg/injection, schedule: Q01DX009 (ip), vehicle: Klucel (hydroxypropylcellulose) (HPC)
[4] = dose: 200.0 mg/kg/injection, schedule: Q01DX009 (ip), vehicle: Klucel (hydroxypropylcellulose) (HPC)
[5] = dose: 400.0 mg/kg/injection, schedule: Q01DX009 (ip), vehicle: Klucel (hydroxypropylcellulose) (HPC)
[6] = dose: 50.0 mg/kg/injection, schedule: Q01DX009 (ip), vehicle: saline with Tween-80
[7] = dose: 100.0 mg/kg/injection, schedule: Q01DX009 (ip), vehicle: saline with Tween-80
[8] = dose: 200.0 mg/kg/injection, schedule: Q01DX009 (ip), vehicle: saline with Tween-80
[9] = dose: 400.0 mg/kg/injection, schedule: Q01DX009 (ip), vehicle: saline with Tween-80
[10] = dose: 25.0 mg/kg/injection, schedule: Q01DX009 (ip), vehicle: saline
[11] = dose: 50.0 mg/kg/injection, schedule: Q01DX009 (ip), vehicle: saline
[12] = dose: 200.0 mg/kg/injection, schedule: Q01DX009 (ip), vehicle: saline

For `O=C1CC2(C(=O)N1CN1CCOCC1)c1ccccc1-c1ccccc12`, the T/C [1] was 103 % of control, the T/C [2] was 98 % of control and the T/C [3] was 98 % of control. For the same compound, the T/C [4] was 107 % of control and the T/C [5] was 115 % of control.
For `Cc1ccc(/C=N\N=C\c2ccc(C)cc2)cc1`, the T/C [6] was 100 % of control and the T/C [7] was 88 % of control.
With `NC(CSCc1ccccc1)C(=O)O` (configuration not stated) the T/C [1] was 98 % of control, the T/C [2] was 106 % of control and the T/C [3] was 102 % of control. For the same compound, the T/C [4] was 98 % of control and the T/C [5] was 117 % of control.
In the case of `CC(C)CC(NC(=O)C(C)NC(=O)CN)C(=O)O` (stereo not drawn) (H-Gly-Ala-Leu-OH; configuration not given here), the T/C [6] is reported as 97 % of control, the T/C [7] is reported as 96 % of control and the T/C [8] is reported as 98 % of control. The T/C [9] was 103 % of control.
With `N=C(N)c1ccc(OCCCOc2ccc(C(=N)N)cc2Br)c(Br)c1` the T/C (dose: 6.25 mg/kg/injection, schedule: Q01DX009 (ip), vehicle: saline) was 97 % of control and 114 % of control, the T/C (dose: 12.5 mg/kg/injection, schedule: Q01DX009 (ip), vehicle: saline) was 97 % of control and 111 % of control and the T/C [10] was 97 % of control and 111 % of control.
In the case of `CCN(CC)CCOC(=O)CC1CCCCC1`, the T/C [11] is reported as 99 % of control, the T/C (dose: 100.0 mg/kg/injection, schedule: Q01DX009 (ip), vehicle: saline) is reported as 96 % of control and the T/C [12] is reported as 95 % of control.
For `CC(C)NNC(=O)C(C)O` (configuration not stated), the T/C [10] was 118 % of control, the T/C [11] was 102 % of control and the T/C [12] was 102 % of control.
`c1ccc(-c2nn(-c3ccccc3)[n+](-c3cccc4ccccc34)n2)cc1` was tested, and the T/C (dose: 2.0 mg/kg/injection, schedule: Q01DX009 (ip), vehicle: saline with Tween-80) was 97 % of control and the T/C (dose: 4.0 mg/kg/injection, schedule: Q01DX009 (ip), vehicle: saline with Tween-80) was 93 % of control.
`CCCCC(NC(=O)CNC(=O)CN)C(=O)O` (stereo not drawn) (H-Gly-Gly-[ξNle]-OH) was tested, and the T/C [6] was 97 % of control, the T/C [7] was 103 % of control and the T/C [8] was 92 % of control. For the same compound, the T/C [9] was 93 % of control.
For `CCN(C(=O)c1cccc(C(=O)N(CC)c2ccccc2C)c1)c1ccccc1C`, the T/C [2] was 101 % of control, the T/C [3] was 98 % of control and the T/C [4] was 102 % of control.
For `C=C1C(=O)OCC2C(C(=O)O)=CC3C(C)C(C)=CC123` (configuration not stated), the T/C (dose: 2.5 mg/kg/injection, schedule: Q01DX009 (ip), vehicle: Klucel (hydroxypropylcellulose) (HPC)) was 106 % of control, the T/C (dose: 3.12 mg/kg/injection, schedule: Q01DX009 (ip), vehicle: other) was 94 % of control and the T/C (dose: 5.0 mg/kg/injection, schedule: Q01DX009 (ip), vehicle: Klucel (hydroxypropylcellulose) (HPC)) was 98 % of control. For the same compound, the T/C (dose: 6.25 mg/kg/injection, schedule: Q01DX009 (ip), vehicle: other) was 101 % of control, the T/C (dose: 10.0 mg/kg/injection, schedule: Q01DX009 (ip), vehicle: Klucel (hydroxypropylcellulose) (HPC)) was 96 % of control and the T/C (dose: 12.5 mg/kg/injection, schedule: Q01DX009 (ip), vehicle: other) was 101 % of control. For the same compound, the T/C (dose: 20.0 mg/kg/injection, schedule: Q01DX009 (ip), vehicle: Klucel (hydroxypropylcellulose) (HPC)) was 98 % of control, the T/C (dose: 25.0 mg/kg/injection, schedule: Q01DX009 (ip), vehicle: other) was 111 % of control and the T/C (dose: 40.0 mg/kg/injection, schedule: Q01DX009 (ip), vehicle: Klucel (hydroxypropylcellulose) (HPC)) was 105 % of control.
With `COCCOCCN1CCN(CCCN2c3ccccc3Sc3ccc(C(F)(F)F)cc32)CC1` the T/C (dose: 0.31 mg/kg/injection, schedule: Q01DX009 (ip), vehicle: saline) was 106 % of control, the T/C (dose: 0.62 mg/kg/injection, schedule: Q01DX009 (ip), vehicle: saline) was 101 % of control and the T/C (dose: 1.25 mg/kg/injection, schedule: Q01DX009 (ip), vehicle: saline) was 108 % of control. For the same compound, the T/C (dose: 2.5 mg/kg/injection, schedule: Q01DX009 (ip), vehicle: saline) was 100 % of control.
With `COc1ccc(NC(=O)Nc2cccc(Cl)c2C)cc1` the T/C (dose: 25.0 mg/kg/injection, schedule: Q01DX009 (ip), vehicle: saline with Tween-80) was 100 % of control and the T/C [6] was 102 % of control.
For `CN(C)c1ccc(/C=C/c2cc[n+](C)cc2)cc1`, the T/C (dose: 1.32 mg/kg/injection, schedule: Q04DX003 (ip), vehicle: saline with Tween-80) was 95 % of control, the T/C (dose: 4.0 mg/kg/injection, schedule: Q04DX003 (ip), vehicle: saline with Tween-80) was 150 % of control and the T/C (dose: 8.0 mg/kg/injection, schedule: Q04DX003 (ip), vehicle: saline with Tween-80) was 117 % of control.
